According to patent US5342838A, “Phenolic thioetheramides” (G. D. Searle & Co., priority 1993, dated 1994):

What was measured:
5-lipoxygenase = target: T1, 5-lipoxygenase (Rattus norvegicus, UniProt P12527); experiment: Inhibition of 5-lipoxygenase, in vitro (5-HETE synthesis, RBL-1 100,000 x g supernatant); type: biochemical; settings: RBL-1 homogenate supernatant
T1 construct: supernatant fraction of Rat Basophilic Leukemia Cell Homogenate (RBL-1) serves as a 5-lipoxygenase enzyme source; endogenous in cells; host or cells: RBL-1 (rat basophilic leukemia) cell homogenate, 100,000 x g supernatant
T1 sequence (P12527 1-673): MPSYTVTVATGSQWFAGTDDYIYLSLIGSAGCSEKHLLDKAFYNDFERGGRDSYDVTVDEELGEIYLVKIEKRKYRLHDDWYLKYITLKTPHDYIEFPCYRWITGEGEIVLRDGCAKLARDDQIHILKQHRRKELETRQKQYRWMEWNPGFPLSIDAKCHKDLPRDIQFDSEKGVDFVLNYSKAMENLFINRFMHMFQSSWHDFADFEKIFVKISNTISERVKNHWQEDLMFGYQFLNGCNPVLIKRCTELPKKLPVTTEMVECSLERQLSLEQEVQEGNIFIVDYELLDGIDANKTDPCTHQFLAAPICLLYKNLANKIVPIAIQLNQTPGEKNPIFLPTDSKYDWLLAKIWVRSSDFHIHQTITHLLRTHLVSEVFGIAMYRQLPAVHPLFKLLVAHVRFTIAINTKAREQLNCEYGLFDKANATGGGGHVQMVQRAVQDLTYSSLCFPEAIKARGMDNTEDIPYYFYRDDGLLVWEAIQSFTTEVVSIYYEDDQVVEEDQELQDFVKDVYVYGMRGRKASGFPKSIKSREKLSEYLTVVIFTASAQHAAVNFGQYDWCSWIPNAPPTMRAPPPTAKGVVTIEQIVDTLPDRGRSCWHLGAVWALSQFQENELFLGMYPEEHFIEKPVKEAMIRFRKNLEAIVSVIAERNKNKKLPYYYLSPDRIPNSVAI
Protocol: The compounds of the invention are evaluated with respect to 5-lipoxygenaseinhibition according to the following assay procedure.
Inhibition of 5-lipoxygenase, in vitro: anti-inflammatory, anti-allergy activities.
The 100,000 x g supernatant fraction of Rat Basophilic Leukemia Cell Homogenate (RBL-1) serves as a 5-lipoxygenase enzyme source. The enzyme is incubated with [1-^14 C)-arachidonic acid and Ca++ in the presence and absence of test compound. The product of 5-lipoxygenase, 5-hydroxyeicosatetraenoic acid (5-HETE), is separated by thin-layer chromatography and measured by radioactivity. A compound inhibiting 5-HETE synthesis by 30% or more is considered active at that concentration.

[1] = tested on: FMLP-stimulated human neutrophils (superoxide generation); experiment: Human neutrophil superoxide generation, FMLP-stimulated, cytochrome C reduction; type: cell-based; settings: for inhibition at 50 µM / activation at 50 µM: Homo sapiens; for inhibition at 50 µM: inhibited at 50 μM, read-out: Effect on FMLP Induced Superoxide: inhibited (% < control); for Effect on FMLP Induced Superoxide: stimulated (% > control) / activation at 50 µM: % above control; for activation at 50 µM: stimulated at 50 μM, read-out: Effect on FMLP Induced Superoxide: stimulated (% > control)
Protocol: The compounds of the invention are evaluated with respect to superoxide modulating activity according to the following assay procedure:
Human neutrophil superoxide generation:
Superoxide generation by formyl-methionyl-leucyl-phenylalanine (FMLP)-stimulated neutrophils was quantitated by the reduction of cytochrome C (Badwey, J. A., Curnutte, J. T. and Karnovsky, M. L., cis-Polyunsaturated fatty acids induce high levels of superoxide production by human neutrophils. J. Biol. Chem. 256: 12640-12643, 1981.) To 5 million neutrophils in 2.85 ml of Krebs-Ringer phosphate buffer, pH 7.2, 50 ul of inhibitor (in 10% DMSO/buffer), and 50 ul ferricytochrome C (5 mM, stock) were added and preincubated for 3 minutes at 37° C. Absorption measurements at 550 nm were recorded at start of preincubation. Fifty ul FMLP (6 μM, stock) was added to initiate reaction. A plateau was reached within 3 minutes and this reading - initial reading (before addition of FMLP) was used to calculate nanomoles of superoxide generated based on a molar extinction coefficient of 2.1×10^4 cm^-1 mole^-1.
Isolation of human neutrophils:
Human neutrophils were isolated from freshly drawn blood of healthy donors. Two ml of 5% dextran (MW 200,000-300,000) in saline was added to 10 ml aliquots of blood, mixed and placed upright for 45 min. at 37° C. Approx. 8-10 ml of the plasma-white cell suspension from the dextran sedimentation was layered on 3 ml of Ficol-paque in a 15 ml tube and centrifuged at 400 g for 30 min. The supernate, containing plasma and platelets, was discarded by aspiration, and the pellet, containing predominantly neutrophils, was resuspended in 1 ml saline. The suspension was transferred to a clean tube, and pooled with other aliquots of blood treated similarly. The pooled suspension was centrifuged at 350 g for 5 min. and supernate discarded. The pellet was resuspended in 5 ml of 0.05% NaCl with a plastic Pasteur pipette for 25 seconds to lyse contaminating red cells, then 5 ml of 1.75% NaCl added to regain isotonicity. The red cell lysing procedure was repeated, the cells suspended in appropriate buffer (depending on assay) and counted.

[2] = versus histamine; cited from earlier work

Row | Structure (SMILES) | IC50 (5-lipoxygenase) | Effect on FMLP Induced Superoxide: stimulated (% > control) ([1]; stimulated at 1-50 μM) | other results
1 | CC(C)(C)c1cc(SCCSCC(=O)NCc2cccnc2)cc(C(C)(C)C)c1O [Example 15, 2-[[2-[[3,5-bis (1,1-dimethylethyl)-4-hydroxyphenyl]thio]ethyl]thio]-N-(3-pyridinylmethyl)acetamide] | 130 nM | – | inhibition at 50 µM ([1]; Neutrophil, % below control): 13%; Effect on FMLP Induced Superoxide: stimulated (% > control) ([1]; stimulated at 1-10 μM): 38%
2 | C[C@H](Sc1cc(C(C)(C)C)c(O)c(C(C)(C)C)c1)[C@@H](C)SCC(=O)NCc1ccncc1 (relative stereo) [Example 17, (±)2S*-[[[2-[[3,5-bis(1,1-dimethylethyl)-4-hydroxyphenyl]thio]-1R*-methylpropyl]thio]-N-(4-pyridinylmethyl)acetamide] | 200 nM | 60% | –
3 | CN(CCc1ccccn1)C(=O)CCSCCSc1cc(C(C)(C)C)c(O)c(C(C)(C)C)c1 [Example 16, 3-[[2-[[3,5-bis(1,1-dimethylethyl)-4-hydroxyphenyl]thio]ethyl]thio]-N-methyl-N-[2-(2-pyridinyl)ethyl]propanamide] | 160 nM | 146% | inhibition at 50 µM ([1]; Neutrophil, % below control): 13%
4 | CC(=O)c1ccc(N2CCN(C(=O)CS[C@H](C)[C@H](C)Sc3cc(C(C)(C)C)c(O)c(C(C)(C)C)c3)CC2)cc1 (relative stereo) [Example 22, (±) 1-(4-acetylphenyl)-4-[2-[[2S*-[[3,5-bis(1,1-dimethylethyl)-4-hydroxyphenyl]thio]-1R*-methylpropyl]thio]-1-oxoethyl]piperazine] | 170 nM | – | activation at 50 µM ([1]; Neutrophil): 17%
5 | C[C@H](Sc1cc(C(C)(C)C)c(O)c(C(C)(C)C)c1)[C@@H](C)OCC(=O)O (relative stereo) [Formula IV, reference compound] | – | – | Effect on superoxide generation, in words ([1]; FMLP-stimulated human neutrophils): inhibited both superoxide generation and 5-lipoxygenase; IC50 ([1]; Neutrophil, FMLP-stimulated human neutrophils, read-out: Effect on FMLP Induced Superoxide: inhibited superoxide generation, IC50): 11000 nM
6 | C[C@H](Sc1cc(C(C)(C)C)c(O)c(C(C)(C)C)c1)[C@@H](C)OCC(=O)N1CCN(Cc2ccccc2)CC1 (relative stereo) [Example 19, (±)1-[2-[2S*-[[3,5-bis(1,1-dimethylethyl)-4-hydroxyphenyl]thio]-1R*-methylpropoxy]-1-oxoethyl]-4-(phenylmethyl)piperazine] | 460 nM | 33% | –
7 | CC(C)(C)c1cc(SCCSCCC(=O)N2CCC(N3CCCCC3)CC2)cc(C(C)(C)C)c1O [Example 21, 1-[3-[[2-[[3,5-bis(1,1-dimethylethyl)-4-hydroxyphenyl]thio]ethyl]thio]-1-oxopropyl]-4-(1-piperidinyl)piperidine] | 150 nM | – | activation at 50 µM ([1]; Neutrophil): 46%
8 | CC(C)(C)c1cc(SCCSCC(=O)NCc2ccccn2)cc(C(C)(C)C)c1O [Example 13, 2-[[2-[3,5-bis(1,1-dimethylethyl)-4-hydroxyphenyl]thiolethyl]thio]-N-(2-pyridinylmethyl)acetamide] | 160 nM | 171% | –
9 | CCCCC/C=C\C\C=C/C=C/C=C/[C@@H](SC[C@H](NC(=O)CC[C@H](N)C(=O)O)C(=O)NCC(=O)O)[C@@H](O)CCCC(=O)O [LTC4] | – | – | potency in causing long lasting bronchoconstricting effects relative to histamine [2]: at least 100 times
10 | C[C@H](Sc1cc(C(C)(C)C)c(O)c(C(C)(C)C)c1)[C@@H](C)OCC(=O)N(C)CCc1ccccn1 (relative stereo) [Example 14, (±)2S*-[2-[[3,5-bis(1,1-dimethylethyl)-4-hydroxyphenyl]thio]-1R*-methylpropoxy]-N-methyl-N-[2-(2-pyridinyl)ethyl]acetamide] | 220 nM | – | Effect on FMLP Induced Superoxide: inhibited (% < control) ([1]; inhibited at 25-50 μM, % below control): 57%; Effect on FMLP Induced Superoxide: stimulated (% > control) ([1]; stimulated at 1-10 μM): 171%
11 | CN1CCN(C(=O)CSCCSc2cc(C(C)(C)C)c(O)c(C(C)(C)C)c2)CC1 [Example 20, 1-[2-[[2-[[3,5-bis(1,1-dimethyethyl)-4-hydroxypheny]thio]ethyl]thio]-1-oxoethyl]-4-methylpiperazine] | 400 nM | – | inhibition at 50 µM ([1]; Neutrophil, % below control): 100%; Effect on FMLP Induced Superoxide: stimulated (% > control) ([1]; stimulated at 1-25 μM): 135%
